The results in this text go back to US20060127890A1, “Novel gene overexpressed in heart and skeletal muscle and use thereof” (priority 2000, published 2006).

The test system of the assay is rat 187-2 gene. Briefly: Expression analysis of the rat 187-2 gene in H9c2 cells by TaqMan PCR upon norepinephrine stimulation. The class given is cell-based. To be noted: serum-free DMEM, norepinephrine 10 nM or 100 nM, after 4 and 8 hours, corrected on G3PDH, versus absence of norepinephrine. As to the method:
H9c2 cells are a cell strain derived from rat myocardial cells, and were purchased from ATCC. The cells were cultured in DMEM medium containing 10% bovine serum, and the cells were recovered using trypsin, inoculated at a density of 100000 cells/well of a 12-well plate and cultured for 12 hours in DMEM medium containing 10% bovine serum. Thereafter, the medium was exchanged with serum-free DMEM, and 10 nM norepinephrine was added at a concentration of 10 nM or 100 nM to the medium, and after 4 and 8 hours, the amount of the rat 187-2 gene expressed was quantified by TaqMan PCR.
(In general: Real-time PCR tracks product formation cycle by cycle.)

As for `NC[C@H](O)c1ccc(O)c(O)c1` [norepinephrine], the “amount of the rat 187-2 gene expressed (maximum level)” value was “about twice that in the absence of norepinephrine”.
